Test results reported in US7727511B2, “Agents for imaging soluble a-beta” (priority 2003, dated 2010).
Values joined by “and” are separate entries in the source; they are usually repeats but may differ in a detail not shown here. Equal entries are not always repeated.

Key:
[1] = target: T1, beta-amyloid 1-42 oligomer (20% biotin) (Homo sapiens, UniProt P05067); assay: SPA competition binding assay against 3H-49b on soluble oligomers; details: 50 uM unlabeled competitor, 130 nM 3H-49b
T1 construct: 12 μg beta-amyloid 1-42 oligomer (20% biotin); purchased Bachem H-5642; host or cells: synthetic peptide
Procedure: Lyophilized Streptavidin-Ysi beads (GE Healthcare) were reconstituted to 100 mg/mL in deioniozed water, and then further diluted in deionized water to give a suspension containing 0.25 mg/10 μl water. Unlabeled 49b and other benzofuran probes were dissolved in DMSO to give a final stock concentration of 15 mM.
For the saturation-binding assay, isotopic dilution of radiolabeled 49b with unlabeled 49b was performed. ^3H-49b was added to 500 uM of unlabeled 49b to a final concentration of 50 μCi/mL ^3H-49b. The probe solution was then serially diluted in PBS to give six solutions giving 6.6, 13.1, 26.3, 52.5, 105, or 210 uM in the final assay well. Each concentration of the probe solution was incubated with 12 μg beta-amyloid 1-42 oligomer (20% biotin) or 1-40 (20% biotin) fibrils in a total volume of 90 μl. Assays were incubated at room temp for 2 hrs before addition of 10 μL YSi-streptavidin (0.25 mg) SPA bead. Assays were set-up in triplicate in 96-well NBS plates (Costar). Assays were incubated overnight and counted the following morning. […] The specific activities of the four probes were different, however the level of activity was the same at the concentrations where the probes were tested. For this assay, 130 nM of ^3H-49b, 90 nM ^3H-cimetidine, 14 nM ^3H-caffeine, and 6 nM ^3H-AZT were tested for direct binding to 12 ug of beta-amyloid-42 oligomer (20% biotin). Assay conditions were the same as described in saturation binding assay. […]
Data analyses were performed using Sigma Plot or GraphPad Prism® version 4. Curves were fitted using non-linear regression. KD values and IC50 values were estimated from the binding curves.
For the competition binding assay between tritium-labeled 49b and various unlabeled benzofuran analogs, assays contained 130 nM ^3H-49b and 50 uM of each of the unlabeled benzofuran analogs. As controls, 10 uM and 50 uM of unlabeled 49b were included in the assays.

A-beta (1-40) fibrils = target: T2, A-beta (1-40) fibrils (Homo sapiens, UniProt P05067); assay: Fluorescence titration assay, fibrils; format: binding; details: for Kd: read-out: KD of compound to insoluble A-beta (1-40) fibrils; for binding to A-beta (1-40) fibrils: fluorescence binding assays, stated in words
T2 construct: Lyophilized human beta-amyloid 1-40 peptide (Catalog number H-1194, Bachem); purchased Bachem H-1194; host or cells: synthetic peptide
Procedure: B. Insoluble A-beta (1-40) fibril formation: Lyophilized human beta-amyloid 1-40 peptide (Catalog number H-1194, Bachem) was solubilized with HFIP to produce a dry clear film following the process described above for beta-amyloid 1-42. The clear film of beta-amyloid 1-40 was diluted with distilled water to achieve a 6 mg/mL concentration. […] The clear solution was diluted to 1 mg/mL with PBS, pH 7.4 to obtain a final concentration of 1 mg/mL beta-amyloid 1-40, and then incubated at 37° C. on an orbital shaker at 200 RPM for 4 days. A cloudy solution was produced, and the fibril production was confirmed by measuring changes in fluorescence of Thioflavin T, as well as by atomic force microscopy and transmission electron microscopy. Fibrils were used immediately after their production was confirmed.
(§1) Fresh solutions of 2-4 mM probe in methanol were appropriately diluted with PBS (pH 7.4) to obtain assay solutions with final concentration range of 0.1 nM to 100 μM probe in 300-400 μL PBS (pH 7.4, 2% methanol) with 10 μM A-beta (1-40) fibrils or 6.6 μM soluble A-beta (1-42). A duplicate series of assay solutions were aliquoted with the volume of soluble A-beta or fibrils replaced by PBS. The set of solutions with probe and soluble/fibrillar A-beta and the duplicate set without A-beta were prepared and the fluorescence spectra measured in triplicate. Spectral changes in the probe's fluorescence emission spectra that were unique to the presence of A-beta indicated specific binding interactions between the probe and A-beta species. This unique spectral change allowed for the determination of the probe's binding affinity. Fluorescence emission spectra for binding affinity determinations are measured with fluorometric instrumentation known to those skilled in the art, including at least a spectrofluorometer and spectrograph. Equilibrium dissociation constants were calculated using a one-site saturation model of binding.

soluble A-beta (1-42) = target: T3, soluble A-beta (1-42) (Homo sapiens, UniProt P05067); assay: Fluorescence titration assay, soluble A-beta; format: binding; details: for Kd: read-out: KD of compound to soluble A-beta (1-42)
T3 construct: 1 mg of human beta-amyloid 1-42 (H-5642, Bachem); purchased Bachem H-5642; host or cells: synthetic peptide
Procedure: A. 1 mg of human beta-amyloid 1-42 (H-5642, Bachem) and 500 uL of 1,1,1,3,3,3 hexafluoro-2-propanol (HFIP) (Aldrich) were chilled in separate bottles on ice for 30 mins. Cold beta-amyloid 1-42 was solubilized with cold HFIP. The mixture was incubated for 1 hr at room temperature until it turned clear. The resulting solution was then dried to a film under vacuum. The film was dissolved again in cold HFIP and incubated another 1 hr at room temperature. The resulting solution was separated into aliquots in several microcentrifuge tubes. HFIP was removed under vacuum, and the films were stored at −20° C. until use. To prepare soluble oligomer, the film was dissolved in appropriate amount of dry DMSO (Sigma), and Ham's F12 media (Biosource) or PBS (Sigma, D8537) was added and incubated at 4° C. for 24 hours (final concentration of 200 uM or 0.9 mg/mL beta-amyloid in 2% DMSO). The tube containing the soluble oligomers was centrifuged at 13,000 rpm for 5 mins, and its supernatant was transferred to a clean tube.
as §1

[2] = target: T1, beta-amyloid 1-42 oligomer (20% biotin); assay: Scintillation proximity assay (SPA), direct/saturation binding of tritium labeled probe to soluble oligomers; details: 90 nM 3H-cimetidine, 14 nM 3H-caffeine, 6 nM 3H-AZT; 12 ug oligomer
Procedure: For SPA and atomic force microscopy (AFM) experiments, preparations of soluble oligomers and fibrils contained 20% biotinylated beta-amyloid 1-42 and 1-40, respectively (H-5642, H-5914, Bachem).
For the saturation-binding assay, isotopic dilution of radiolabeled 49b with unlabeled 49b was performed. ^3H-49b was added to 500 uM of unlabeled 49b to a final concentration of 50 μCi/mL ^3H-49b. The probe solution was then serially diluted in PBS to give six solutions giving 6.6, 13.1, 26.3, 52.5, 105, or 210 uM in the final assay well. Each concentration of the probe solution was incubated with 12 μg beta-amyloid 1-42 oligomer (20% biotin) or 1-40 (20% biotin) fibrils in a total volume of 90 μl. Assays were incubated at room temp for 2 hrs before addition of 10 μL YSi-streptavidin (0.25 mg) SPA bead. Assays were set-up in triplicate in 96-well NBS plates (Costar). Assays were incubated overnight and counted the following morning. […] Assay conditions were the same as described in saturation binding assay.
A direct binding assay using tritium labeled 49b was performed against oligomers or fibrils by scintillation proximity assay (SPA). Beta-amyloid containing 20% biotin and tritiated 49b were incubated in solution for two hours prior to addition of the Ysi-Streptavidin beads.

[3] = test system: beta-amyloid in PDAPP mouse brain sections; assay: Histochemical staining on PDAPP transgenic mouse brain sections; format: binding; details: 24-month old PDAPP, carbonate extraction buffer to remove soluble material
Procedure: 3-month old and 24-month old PDAPP mouse brains were obtained from Eli Lilly (Indianapolis, Ind.). Fresh frozen 30 micron sections of the brains were fixed in 10% formalin. For 49b, or Thioflavin S staining, 1 mM stock solutions of 49b and Thioflavin S were prepared in 50% ethanol. The probes were diluted to 25 μM in 50% ethanol, and then applied onto the PDAPP brain sections. The slides were incubated in a humid chamber at room temperature for 1 hr. The slides were washed three times with PBS and mounting medium (Molecular Probes) was added. The slides were incubated at least 4-6 hours before imaging. For the carbonate pre-treatment of the brain sections, formalin-fixed sections were incubated with 100 μL of carbonate buffer containing 0.025 M sodium chloride and 0.1 M sodium carbonate for 45 mins at 37° C. The slides were washed three times with PBS, then 49b or Thioflavin S were applied on the slides as described above. Microscopic examination and imaging was performed using a Leica wide-field fluorescence microscope using filter cube A for 49b and cube E4 for Thioflavin S. Co-staining of the probes with 6E10 anti-beta-amyloid antibody in the PDAPP brain sections was described in the ex vivo assay using naïve rats.

[4] = 10 μM A-beta (1-40) fibrils, PBS pH 7.4, 2% methanol
[5] = 6.6 μM soluble A-beta (1-42), PBS pH 7.4, 2% methanol

T2 sequence (P05067 672-711 limits assumed): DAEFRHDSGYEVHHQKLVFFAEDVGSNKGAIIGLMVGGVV
T3 sequence (P05067 672-713 limits assumed): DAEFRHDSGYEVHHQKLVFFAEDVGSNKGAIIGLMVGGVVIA
T1 sequence (P05067 672-713 limits assumed): as above
Chain of beta-amyloid in PDAPP mouse brain sections (P05067 672-711 limits assumed): as the sequence (P05067 672-711 limits assumed) above

Row | Molecule | inhibition at 50 µM [1] | other results
1 | CC(=O)OCc1c(-c2ccc(CN3CCN(c4ccc(C#N)cc4)CC3)o2)oc2ccccc12 [Compound 1c] | 24% | –
2 | COC(=O)[C@H](C(C)C)n1cnc(-c2ccccc2)c1-c1ccc(-c2oc3ccccc3c2CO)o1 [Compound 2c] | 30% | –
3 | COc1ccc(N2CCN(Cc3ccc(-c4oc5ccccc5c4COC(C)=O)o3)CC2)cc1 [Compound 3c] | 38% | –
4 | COCCN1CCN(Cc2ccc(-c3oc4ccccc4c3COC(C)=O)o2)CC1 [Compound 4c] | 41% | –
5 | OCc1c(-c2ccc(-c3c(-c4ccccc4)ncn3CCF)o2)oc2ccccc12 [Compound 5c] | 48% | –
6 | N#Cc1ccc(C(O)c2ccc(-c3oc4ccccc4c3CO)o2)cc1 (stereo not shown) [Compound 6c] | 51% | –
7 | CC(=O)OCc1c(-c2ccc(C=O)o2)oc2ccccc12 [Compound 7c] | 51% | –
8 | CC(=O)OCc1c(-c2ccc(C(O)c3ccc(F)c(Cl)c3)o2)oc2ccccc12 (stereo not shown) [Compound 8c] | 51% | –
9 | CC(=O)OCc1c(-c2ccc(CN3CCN(c4ccc(Cl)cc4)CC3)o2)oc2ccccc12 [Compound 9c] | 55% | –
10 | CCOC(=O)c1ccc(C(O)c2ccc(-c3oc4ccccc4c3CO)o2)o1 (stereo not shown) [Compound 10c] | 57% | –
11 | OCc1c(-c2ccc(-c3cncn3CCF)o2)oc2ccccc12 [Compound 11c] | 58% | –
12 | CCOC(=O)c1ccc(C(O)c2ccc(-c3oc4ccccc4c3COC(C)=O)o2)o1 (stereo not shown) [Compound 12c] | 59% | –
13 | CC(=O)OCc1c(-c2ccc(CN3CCN(c4ccc(C(F)(F)F)cc4)CC3)o2)oc2ccccc12 [Compound 13c] | 60% | –
14 | CC(=O)OCc1c(-c2ccc(CN3CCN(c4ccc(C)cc4)CC3)o2)oc2ccccc12 [Compound 14c] | 60% | –
15 | OCc1c(-c2ccc(C(O)CCC3OCCCO3)o2)oc2ccccc12 (stereo not shown) [Compound 15c] | 68% | –
16 | COc1cc(-c2oc3ccccc3c2CO)cc(OC)c1OC [Compound 37b] | – | Kd (A-beta (1-40) fibrils; [4]): > 100000 nM; binding to A-beta (1-40) fibrils (A-beta (1-40) fibrils): minimal specific binding; Kd (soluble A-beta (1-42); [5]): 22 nM and 22.8 nM; increase in fluorescence intensity (and quantum yield) with soluble A-beta (soluble A-beta (1-42); relative to compound in 2% methanol in PBS): approximately 5 times
17 | Cc1cc(-c2oc3ccccc3c2C(=O)c2ccccc2)ccc1F [Compound 38b] | – | KD of compound to insoluble A-beta (1-40) fibrils (A-beta (1-40) fibrils; [4]): Nonspecific binding; binding to A-beta (1-40) fibrils (A-beta (1-40) fibrils): neither binds; KD of compound to soluble A-beta (1-42) (soluble A-beta (1-42); [5]): Nonspecific binding; binding to soluble A-beta (1-42) (soluble A-beta (1-42); fluorescence binding assays, stated in words): neither binds
18 | Cc1cc(-c2oc3ccccc3c2C)ccc1F [Compound 39b] | – | Kd (A-beta (1-40) fibrils; [4]): 1680 nM; binding to A-beta (1-40) fibrils (A-beta (1-40) fibrils): specifically binds; Kd (soluble A-beta (1-42); [5]): > 100000 nM
19 | CN/C(=N/CCSCc1nc[nH]c1C)NC#N [cimetidine, reference compound] | – | direct binding of tritium labeled probe to soluble oligomers [2]: did not bind
20 | Thioflavin S [reference compound] | – | staining of carbonate pre-treated brain sections [3]: staining remained
